From patent US20080070987A1, “META-XYLYLENEDIAMINE VANADATE SALTS” (priority 2006, published 2008)
“Also recorded” adds a separate entry of the source.

Experiments:
[1] = tested on: isolated rat adipocytes; assay: Glucose (2-deoxyglucose) transport in isolated rat adipocytes; format: cell-based, Wistar rats; conditions: for effect of semicarbazide on the stimulation of glucose transport: 1 mM semicarbazide; for stimulation of glucose transport (2-DG uptake), in words: 45 min incubation; for stimulation of glucose transport compared with the combination of benzylamine and vanadate: combination 100 μM benzylamine and 100 μM vanadate
Description: FIG. 1 is a graphical illustration of the hexaquis(benzylammonium) decavanadate effects on glucose transport in isolated rat adipocytes. In this Figure, V corresponds to the rate of 2-deoxyglucose transport (expressed relative to the basal rate), and the results are mean +standard error of the mean (SEM). The adipocytes were incubated in the absence of stimulants in the following conditions: basal (1); in the presence of 100 nM insulin (2); in the presence of hexaquis(benzylammonium) decavanadate at concentrations of 0.5 μM (3), 1 μM (4), 2.5 μM (5), 5 μM (6), 10 μM (7), 25 μM (8), 50 μM (9), and 100 μM (10). The cells were also incubated in the presence of the semicarbazide inhibitor (1 mM), and 10 μM hexaquis(benzylammonium) decavanadate (11), 25 μM of hexaquis(benzylammonium) decavanadate (12) or 50 μM hexaquis(benzylammonium) decavanadate (13). In parallel, the cells were incubated in presence of 100 μM of sodium vanadate and 100 μM of benzylamine, in the absence (14) or in the presence of 1 mM of semicarbazide (15).
FIG. 2 is a graphical illustration of the effects of hexaquis(benzylammonium) decavanadate, pentaquis(benzylammonium) decavanadate and tetraquis(benzylammonium) decavanadate on glucose transport in isolated rat adipocytes. V corresponds to the rate of 2-deoxyglucose uptake (expressed as relation with basal group), and the results are mean +standard error mean. The adipocytes were incubated in the absence of stimulants in the following conditions: basal (1); in the presence of 100 nM of insulin (2); in the presence of hexaquis(benzylammonium) decavanadate at concentrations of 10 μM (3) and 25 μM (4), pentaquis(benzylammonium) decavanadate at concentrations of 10 μM (8) and 25 μM (9), and tetraquis(benzylammonium) decavanadate at concentrations of 10 μM (11) and 25 μM (12). The cells were also incubated in the presence of the semicarbazide inhibitor (1 mM) and, 25 μM of hexaquis(benzylammonium) decavanadate (5), 25 μM of pentaquis(benzylammonium) decavanadate (10) or 25 μM of tetraquis(benzylammonium) decavanadate (13). In parallel, the cells were incubated in the presence of 100 μM of sodium vanadate (6) or in the presence of 250 μM of sodium vanadate (7).
(§1) Adipose cells from Wistar rats were incubated for 45 minutes in basal conditions (Basal) or in the presence of 100 nM insulin (Ins) and different concentrations of. hexaquis(benzylammonium) decavanadate (B6V10) in the absence or in the presence of 1 mM semicarbazide (SCZ). Subsequently, 2-DG transport was measured over a 5 min. interval.
The effects of the three tested compounds (B6V10, B5V10 and B4V10) were compared. Adipose cells from Wistar rats were incubated for 45 minutes in basal conditions (Basal) or in the presence of 100 nM insulin (Ins), and different concentrations of decavanadate (V10), hexaquis(benzylammonium) decavanadate (B6V10), pentaquis(benzylammonium) decavanadate (B5V10) or tetraquis(benzylammonium) decavanadate (B4V10) in the absence or in the presence of 1 mM semicarbazide (SCZ). 2-DG transport was measured over 5 min. intervals.
In additional experiments, compounds shown in FIG. 6A, 2-(4-fluoro-phenyl)ethylamine (compound A), 3-phenylpropylamine (compound B), 4-fluoro-benzylamine (compound C) and 4-phenylbutylamine (compound D) were assessed using the experimental methods set forth above for the capacity to stimulate 2-DG uptake in isolated rat adipocytes. Adipose cells from Wistar rats were incubated for 45 minutes in basal conditions (Basal) or in the presence of 100 nM insulin (Ins), and different concentrations of vanadium salts of 2-(4-fluoro-phenyl)-ethylamine (compound A), 3-phenyl-propylamine (compound B), 4-fluoro-benzylamine (compound C) and 4-phenyl-butylamine (compound D). 2-DG transport was measured over 5 min.
The effects of incubation with semicarbazide or phosphatidylinositol 3-kinase inhibitors were also investigated. […]

[2] = tested on: isolated mouse adipocytes; assay: Glucose (2-deoxyglucose) transport in isolated mouse adipocytes; format: cell-based, FVB mice; conditions: 100 μM
Description: as §1, with “FVB mice” for “Wistar rats”, “(Ins),” for “(Ins)”, “of” for “of.”, “(SCZ) and thereafter,” for “(SCZ). Subsequently,”, “over” for “over a”, “min.” for “min. interval.”

[3] = listed as hexaquis(benzylammonium) decavanadate

| EC50 ([1]; FIG. 1, read-out: concentration of semimaximal effect on glucose transport) [µM] | Substance | effect of semicarbazide on the stimulation of glucose transport [1] | effect of semicarbazide on the stimulation of glucose transport [1, 3] | stimulation of glucose transport (2-DG uptake), in words [1] | stimulation of glucose transport (2-DG uptake), in words [1, 3] | concentration from which stimulation of glucose transport is perceptible ([1]; FIG. 1) [µM] | concentration of maximal effect on glucose transport ([1]; FIG. 1) [µM] | stimulation of glucose transport compared with the combination of benzylamine and vanadate [1] | stimulation of glucose transport compared with the combination of benzylamine and vanadate [1, 3] | maximal effect on glucose transport as % of the maximal stimulation caused by insulin ([1]; insulin 100 nM) [%] | stimulation of glucose transport (% increase) [2] [%] | stimulation of glucose transport, in words ([1]; concentrations ranging from 5 to 50 μM) |
| --- | --- | --- | --- | --- | --- | --- | --- | --- | --- | --- | --- | --- |
| > 1 | hexaquis(benzylammonium) decavanadate [Example B6V10] | completely blocked by semicarbazide; also recorded: blocked in the presence of semicarbazide | completely blocked by semicarbazide | concentration-dependent manner | pronounced stimulation on glucose transport | 0.5 | 2.5 | greater stimulation | greater than that produced by the presence of benzylamine and vanadate in combination | 85 | 93 |  |
|  | sodium decavanadate [Example V10, reference compound] |  |  |  |  |  |  |  |  |  |  | did not stimulate glucose transport |
